In the first test the target is human APJ-AT1R (angiotensin Type 1) double stable CHO cell line (Homo sapiens (Human), UniProt P35414). Briefly: IP1 accumulation (TR-FRET), APJ-AT1R double stable CHO cell line. The class given is cell-based. The note with it: in the presence of AngII and APJ small molecule agonists.
Chain of human APJ receptor (P35414 whole entry): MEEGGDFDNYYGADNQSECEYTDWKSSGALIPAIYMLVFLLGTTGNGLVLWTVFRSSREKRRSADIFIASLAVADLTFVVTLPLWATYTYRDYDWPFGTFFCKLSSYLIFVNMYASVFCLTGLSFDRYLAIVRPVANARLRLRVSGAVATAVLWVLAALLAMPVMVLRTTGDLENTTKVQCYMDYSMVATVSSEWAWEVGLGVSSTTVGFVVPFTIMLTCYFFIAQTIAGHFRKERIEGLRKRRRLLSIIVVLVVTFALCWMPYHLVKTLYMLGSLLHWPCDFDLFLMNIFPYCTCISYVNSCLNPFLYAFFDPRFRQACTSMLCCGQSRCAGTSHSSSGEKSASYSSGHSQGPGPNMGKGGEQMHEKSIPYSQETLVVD
Chain of human APJ-AT1R (angiotensin Type 1) double stable CHO cell line (P35414 whole entry): as above
Experimental: Single and double stable recombinant cell lines were generated for human APJ and the AT1R receptor in CHO K1 cells tagged either with FLAG or hemagglutinin (HA) tag. Briefly, the CHO-K1 APJ/AT1R cells were seeded in culture medium of DMEM-F12 and 10% FBS at a density of 15 k/well in a 96 well plate overnight. The next day, the culture medium was replaced with medium containing no serum for 4 hours. The compound AngII at a range of concentrations (1 pM-10 μM) with or without different concentrations of APJ agonists were diluted in stimulation buffer and added to the cell plate. The plate was sealed and incubated for 1 hour. This was followed by addition of IP-d2 conjugate followed by europium cryptate antibody conjugate into the wells. The plate was sealed, followed with incubation for 2 hours at RT. Time-resolved fluorescence resonance energy (TR-FRET) at 620 nm and 665 nm was measured after 2 horns with an Envision reader. The signal ratios and delta F were calculated and the amount of IP1 produced was inversely proportional to the TR-FRET ratio, 665/620 nm.
For the molecule `CCCCc1nc(Cl)c(CO)n1Cc1ccc(-c2ccccc2-c2nn[nH]n2)cc1` [losartan], the “effect of AT1R blockade on APJ agonist-induced cooperativity” value is “relieved this cooperativity and resulted in synergistic effects of enhancing the efficacy of the APJ receptor”.

Another test deals with heart failure rats. Kind of test: Cardiac function in heart failure rats in vivo. The arrangement: species or system rat. The note with it: captopril alone, acute settings. From the text: The interaction between […] (ACE2) and Apelin biology is complicated. To investigate the interaction between the Apelin-APJ and ACE signalling pathways, we examined the improvement in cardiac function with APJ small molecule agonists in the presence of ACE inhibitor captopril in heart failure rats in vivo. […] However, in the presence of an APJ agonist, there was a shift in potency to the left with marked improvement in contractility and ejection fraction without changes in heart rate. These findings provide a new reference for the understanding of the regulation of ACE2 for the renin angiotensin aldosterone system (RAAS), independent of AT1R signaling and offer new potential drug targets for the treatment of diseases such as hypertension and heart failure. This work clearly establishes that combination of an agonist of the APJ receptor with an ARB such as losartan and/or with an ACE inhibitor such as captopril which may play an important role in providing greater efficacy in treating heart failure patients, for example in improving contractility and ejection fraction without changing the heart rate.
Consider `C[C@H](CS)C(=O)N1CCC[C@H]1C(=O)O` [Captopril, captopril], for which the “improvement in contractility or ejection fraction” value is listed as “does not show a marked improvement in contractility or ejection fraction acutely”.

Another test deals with human APJ receptor (Homo sapiens (Human), UniProt P35414). Kind of test: [35S]GTPγS binding assay (hAPJ SPA). Type of test: biochemical. The note with it: membranes from CHO cells stably expressing human APJ receptor, read-out: Activity hAPJ SPA EC50 IP. The method, then:
[^35S]GTPγS Binding The human APJ receptor was cloned by polymerase chain reaction and the gene encoding the receptor was subcloned in pFLAG-CMV™-3 expression vector (Sigma, Saint Louis, Mo. USA) in-house at Amgen. A GTPγS binding assay was performed on membranes prepared from CHO cells stably expressing human APJ receptor. The optimum experimental conditions for the concentrations of GDP, MgCl2, and NaCl in the assay buffer were initially determined. […] Incubation was at RT for 90 min and the microplate was read using a ViewLux™ ultra HTS Microplate Imager (PerkinElmer, Inc.). All the results presented are means of several independent experiments and analyzed by non-linear regression methods using the commercially available program Prism (GraphPad, San Diego, Calif.) providing the EC50 values detailed in Table 3.
In the case of `CCCCc1nc(O)c(NS(=O)(=O)C[C@H](C)c2ncc(F)cn2)c(=O)n1-c1c(OC)cccc1OC` (single isomer, unassigned) [Example 4.5, (R)-N-(2-butyl-1-(2,6-dimethoxyphenyl)-4-hydroxy-6-oxo-1,6-dihydropyrimidin-5-yl)-2-(5-fluoropyrimidin-2-yl)propane-1-sulfonamide or (S)-N-(2-butyl-1-(2,6-dimethoxyphenyl)-4-hydroxy-6-oxo-1,6-dihydropyrimidin-5-yl)-2-(5-fluoropyrimidin-2-yl)propane-1-sulfonamide], the EC50 was 11 nM.

As to `CCCCc1nc(O)c(NS(=O)(=O)C[C@@H](C)c2ncc(F)cn2)c(=O)n1-c1c(OC)cccc1OC` (single isomer, unassigned) [Example 4.6, (S)-N-(2-butyl-1-(2,6-dimethoxyphenyl)-4-hydroxy-6-oxo-1,6-dihydropyrimidin-5-yl)-2-(5-fluoropyrimidin-2-yl)propane-1-sulfonamide or (R)-N-(2-butyl-1-(2,6-dimethoxyphenyl)-4-hydroxy-6-oxo-1,6-dihydropyrimidin-5-yl)-2-(5-fluoropyrimidin-2-yl)propane-1-sulfonamide], the EC50 was 20 nM.

`CCCCc1nc(O)c(NS(=O)(=O)[C@H]2CCCN(c3ncc(F)cn3)C2)c(=O)n1-c1c(OC)cccc1OC` (single isomer, unassigned) [Example 4.7, (S)-N-(2-butyl-1-(2,6-dimethoxyphenyl)-4-hydroxy-6-oxo-1,6-dihydropyrimidin-5-yl)-1-(5-fluoropyrimidin-2-yl)piperidine-3-sulfonamide or (R)-N-(2-butyl-1-(2,6-dimethoxyphenyl)-4-hydroxy-6-oxo-1,6-dihydropyrimidin-5-yl)-1-(5-fluoropyrimidin-2-yl)piperidine-3-sulfonamide]: the EC50 was found to be 78 nM.

`CCCCc1nc(O)c(NS(=O)(=O)CCc2ncc(F)cn2)c(=O)n1-c1c(OC)cccc1OC` [Example 4.0, N-(2-Butyl-1-(2,6-dimethoxyphenyl)-4-hydroxy-6-oxo-1,6-dihydropyrimidin-5-yl)-2-(5-fluoropyrimidin-2-yl)ethane-1-sulfonamide]: the EC50 turned out to be 30 nM.

Consider `CCCCc1nc(O)c(NS(=O)(=O)C(C)C)c(=O)n1-c1c(OC)cccc1OC` [Example 4.1, N-(2-butyl-1-(2,6-dimethoxyphenyl)-4-hydroxy-6-oxo-1,6-dihydropyrimidin-5-yl)propane-2-sulfonamide], for which the EC50 was determined as 745 nM.

Regarding `CCCCc1nc(O)c(NS(=O)(=O)[C@@H](C)[C@H](C)c2ncc(F)cn2)c(=O)n1-c1c(OC)cccc1OC` [Example 4.2, (2S,3R)-N-(2-butyl-1-(2,6-dimethoxyphenyl)-4-hydroxy-6-oxo-1,6-dihydropyrimidin-5-yl)-3-(5-fluoropyrimidin-2-yl)butane-2-sulfonamide], the EC50 worked out at 27 nM.

As for `CCCCc1nc(O)c(NS(=O)(=O)Cc2ccccc2)c(=O)n1-c1c(OC)cccc1OC` [Example 4.3, N-(2-butyl-1-(2,6-dimethoxyphenyl)-4-hydroxy-6-oxo-1,6-dihydropyrimidin-5-yl)-1-phenylmethanesulfonamidesulfonamide], the EC50 stood at 194 nM.

On to `CCCCc1nc(O)c(NS(=O)(=O)c2ccccc2)c(=O)n1-c1c(OC)cccc1OC` [Example 4.4a, N-(2-butyl-1-(2,6-dimethoxyphenyl)-4-hydroxy-6-oxo-1,6-dihydropyrimidin-5-yl)benzenesulfonamide], for which the EC50 was 244 nM.

Take `CCCCc1nc(O)c(NS(=O)(=O)CCc2ccccc2)c(=O)n1-c1c(OC)cccc1OC` [Example 4.4b, N-(2-butyl-1-(2,6-dimethoxyphenyl)-4-hydroxy-6-oxo-1,6-dihydropyrimidin-5-yl)-2-phenylethane-1-sulfonamide]: the EC50 was found to be 193 nM.

For `CCCCc1nc(O)c(NS(=O)(=O)[C@@H](C)[C@H](OC)c2ncc(C)cn2)c(=O)n1-c1c(OC)cccc1OC` [Example 4.8, (1R,2S)-N-(2-butyl-1-(2,6-dimethoxyphenyl)-4-hydroxy-6-oxo-1,6-dihydropyrimidin-5-yl)-1-methoxy-1-(5-methylpyrimidin-2-yl)propane-2-sulfonamide], the EC50 came to 86 nM.

Regarding `CCCCc1nc(O)c(NS(=O)(=O)C2CCCCC2)c(=O)n1-c1c(OC)cccc1OC` [Example 4.9, N-(2-butyl-1-(2,6-dimethoxyphenyl)-4-hydroxy-6-oxo-1,6-dihydro-5-pyrimidinyl)cyclohexanesulfonamide], the EC50 was 193 nM.

As to `COc1cccc(OC)c1-n1c(C2CCCC2)nc(O)c(NS(=O)(=O)CCc2ncc(F)cn2)c1=O` [Example 4.17, N-[2-cyclopentyl-1-(2,6-dimethoxyphenyl)-4-hydroxy-6-oxo-pyrimidin-5-yl]-2-(5-fluoropyrimidin-2-yl)ethanesulfonamide], the EC50 is 2.8 nM.

Turning to `COc1cccc(OC)c1-n1c(-c2ccccc2)nc(O)c(NS(=O)(=O)CCc2ncc(F)cn2)c1=O` [Example 4.24, N-[1-(2,6-dimethoxyphenyl)-4-hydroxy-6-oxo-2-phenyl-pyrimidin-5-yl]-2-(5-fluoropyrimidin-2-yl)ethanesulfonamide], the EC50 amounted to 1.5 nM.

Another test relates to isolated cardiomyocyctes.
Test: not given
Particulars: isolated cardiomyocytes, exogenous apelin; cited from earlier work.
For the molecule apelin, the “increase in sarcomere shortening” value was “up to 140%”.

The target in the next test is human AT1R receptor expressed in the CHO cell line (Homo sapiens (Human), UniProt P30556).
Chain of human AT1R receptor expressed in the CHO cell line (P30556 whole entry): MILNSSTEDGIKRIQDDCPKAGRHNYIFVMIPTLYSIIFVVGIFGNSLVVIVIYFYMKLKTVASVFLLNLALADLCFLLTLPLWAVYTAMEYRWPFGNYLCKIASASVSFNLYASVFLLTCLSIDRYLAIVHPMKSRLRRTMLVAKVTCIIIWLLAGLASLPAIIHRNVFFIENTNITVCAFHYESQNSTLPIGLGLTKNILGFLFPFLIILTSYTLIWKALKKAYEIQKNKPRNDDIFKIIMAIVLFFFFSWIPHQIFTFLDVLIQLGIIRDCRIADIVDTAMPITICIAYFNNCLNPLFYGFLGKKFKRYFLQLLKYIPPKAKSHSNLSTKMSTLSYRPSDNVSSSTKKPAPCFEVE
Test: not given
The note with it: AT1R expressed alone, no APJ expression.
On to pyr apelin-13, for which the “cooperativity on AngII-induced IP1 response” value is “no positive cooperativity observed”.

A word on the EC50: it is the concentration at which the effect is half-maximal.

(Values after patent publication US11807624B2, “Substituted pyrimidinones as agonists of the APJ receptor” (AMGEN INC., priority 2018, dated 2023).)
